From ChEMBL document CHEMBL5046324, “Small-Molecule Inhibitor of the Oncogenic KRASG12C Mutant for the Treatment of Currently Incurable Cancer” (ACS Med Chem Lett, 2022)

How the values were obtained:
GTPase KRas [1] = target: T1, GTPase KRas (Homo sapiens, UniProt P01116, G12C); test: Inhibition of KRAS G12C mutant (2 to 188 residues) (unknown origin) expressed in Escherichia coli assessed as inhibition of SOS mediated nucleotide exchange at 21 degreeC for 15 mins by HTRF assay
GTPase KRas [2] = target: T1, GTPase KRas; test: Inhibition of KRAS G12C mutant (2 to 188 residues) (unknown origin) expressed in Escherichia coli assessed as inhibition of SOS mediated nucleotide exchange at 4 degreeC for 18 hrs by HTRF assay
GTPase KRas [3] = target: T1, GTPase KRas; test: Inhibition of KRAS G12C mutant in human HCC1171 cells assessed as effect on cell alkylation measured after 18 hrs by western blot analysis; format: cell-based
GTPase KRas [4] = target: T1, GTPase KRas; test: Inhibition of KRAS G12C mutant (2 to 188 residues) (unknown origin) expressed in Escherichia coli assessed as inhibition of SOS mediated nucleotide exchange measured after 18 hrs by HTRF assay

Row | Compound | IC50 (GTPase KRas [1]) [nM] | IC50 (GTPase KRas [2]) [nM] | EC50 (GTPase KRas [3]) [nM] | IC50 (GTPase KRas [4]) [nM]
1 | C=CC(=O)N1CCN(c2nc(OC[C@@H]3CCCN3C)nc3c2CC[C@]2(CCc4ccccc4C2)C3)C[C@@H]1CC#N | 131 | 60 |  | 
2 | C=CC(=O)N1CCN(c2nc(OC[C@@H]3CCCN3C)nc3c2C[C@@H](C)[C@H](c2cc(O)cc4ccccc24)C3)[C@@H](C)C1 |  |  | < 6.1 | 
3 | C=CC(=O)N1CCN(c2nc(OCc3cn(C)cn3)nc3c2CC[C@H](c2cc(O)cc4ccccc24)C3)[C@@H](C)C1 |  |  | 3000 | 470
4 | C=CC(=O)N1CCN(c2nc(OC[C@@H]3CCCN3C)nc3c2CC[C@@]2(CCc4ccccc4C2)C3)C[C@@H]1CC#N | 291 | 51 |  | 
5 | C=CC(=O)N1CCN(c2nc(OC[C@@H]3C[C@H](F)CN3C)nc3c2C[C@@H](C)[C@H](c2cc(O)cc4ccccc24)C3)[C@@H](C)C1 |  |  | 40 | 11
6 | C=CC(=O)N1CCN(c2nc(OC[C@@H]3CCCN3C)nc3c2CCC2(CCc4ccccc4C2)C3)C[C@@H]1CC#N (stereo partly specified) | 142 | 46 |  | 
